What was measured:
[1] = target: H. contortus AVR-14B GluCl (wild-type) (Haemonchus contortus, UniProt O46124); type: cell-based; details: Wild-type AVR-14B GluCl, mean ± s.e.m.
Excerpt: (§1) All mutant cDNAs were generated from AVR-14B cDNA in the T7 plasmid vector[45] by conventional PCR with Pfu DNA polymerase (Thermo Scientific, Germany) and commercially generated mutagenesis primers (Eurofins MWG Operon, Ebersberg, Germany). All cDNAs were sequenced to confirm the presence of appropriate mutations (Eurofins MWG Operon) and linearized with XbaI (Thermo Scientific). cRNAs were synthesized with the mMESSAGE mMACHINE T7 Kit (Life Technologies GmbH, Darmstadt, Germany). X. laevis oocytes were used for two electrode voltage-clamp electrophysiology as previously described[48] and under approval of the Technical University of Darmstadt (Agreement V54-19c20/15 DA8/Anz. 20). […] Non-linear regression parameters were compared to the respective WT value with Student's unpaired t tests (Prism4).

AVR-14B GluCl R76N = test: Two electrode voltage-clamp of Xenopus laevis oocytes expressing R76N mutant AVR-14B GluCl; type: cell-based, Haemonchus contortus
Excerpt: as §1, with “20). After 2–5 days, oocytes were perfused with extracellular solution (115 mM NaCl, 1 mM KCl, 1.8 mM CaCl2, 10 mM HEPES, pH 7.4 with NaOH) alone or containing agonist, and currents were sampled at 1 kHz and filtered at 500 Hz with a Digidata 1322A digitizer, Geneclamp 500B amplifier and Clampex software (Molecular Devices, Sunnyvale, CA, USA).” for “20).”

AVR-14B GluCl R95A = test: Two electrode voltage-clamp of Xenopus laevis oocytes expressing R95A mutant AVR-14B GluCl; type: cell-based, Haemonchus contortus; details: 1 μM ivermectin, mean ± s.e.m.
Excerpt: as §1, with “20). After 2–5 days, oocytes were perfused with extracellular solution (115 mM NaCl, 1 mM KCl, 1.8 mM CaCl2, 10 mM HEPES, pH 7.4 with NaOH) alone or containing agonist, and currents were sampled at 1 kHz and filtered at 500 Hz with a Digidata 1322A digitizer, Geneclamp 500B amplifier and Clampex software (Molecular Devices, Sunnyvale, CA, USA).” for “20).”

AVR-14B GluCl A197E = test: Two electrode voltage-clamp of Xenopus laevis oocytes expressing A197E mutant AVR-14B GluCl; type: cell-based, Haemonchus contortus
Excerpt: as §1, with “20). After 2–5 days, oocytes were perfused with extracellular solution (115 mM NaCl, 1 mM KCl, 1.8 mM CaCl2, 10 mM HEPES, pH 7.4 with NaOH) alone or containing agonist, and currents were sampled at 1 kHz and filtered at 500 Hz with a Digidata 1322A digitizer, Geneclamp 500B amplifier and Clampex software (Molecular Devices, Sunnyvale, CA, USA).” for “20).”

AVR-14B GluCl Y199F = test: Two electrode voltage-clamp of Xenopus laevis oocytes expressing Y199F mutant AVR-14B GluCl; type: cell-based, Haemonchus contortus; details: 1 μM ivermectin, mean ± s.e.m.
Excerpt: as §1, with “20). After 2–5 days, oocytes were perfused with extracellular solution (115 mM NaCl, 1 mM KCl, 1.8 mM CaCl2, 10 mM HEPES, pH 7.4 with NaOH) alone or containing agonist, and currents were sampled at 1 kHz and filtered at 500 Hz with a Digidata 1322A digitizer, Geneclamp 500B amplifier and Clampex software (Molecular Devices, Sunnyvale, CA, USA).” for “20).”

AVR-14B GluCl S169A = target: T1, AVR-14B GluCl S169A (Haemonchus contortus, UniProt O46124, S169A); details: S169A mutant, mean ± s.e.m.
T1 sequence (O46124 31-438 S169A): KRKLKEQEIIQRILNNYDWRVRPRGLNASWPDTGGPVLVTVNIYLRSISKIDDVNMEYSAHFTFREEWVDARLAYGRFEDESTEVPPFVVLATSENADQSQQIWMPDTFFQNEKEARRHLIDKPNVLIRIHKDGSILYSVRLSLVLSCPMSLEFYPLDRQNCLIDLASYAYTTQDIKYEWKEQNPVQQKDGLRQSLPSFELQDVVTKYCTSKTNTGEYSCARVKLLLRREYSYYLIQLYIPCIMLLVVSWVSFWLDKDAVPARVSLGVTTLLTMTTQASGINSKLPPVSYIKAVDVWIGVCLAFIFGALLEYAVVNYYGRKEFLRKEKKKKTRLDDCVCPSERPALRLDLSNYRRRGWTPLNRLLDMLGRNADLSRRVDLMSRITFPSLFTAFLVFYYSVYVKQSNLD
Excerpt: as §1

AVR-14B GluCl T245A = target: T2, AVR-14B GluCl T245A (Haemonchus contortus, UniProt O46124, T245A); details: T245A mutant, mean ± s.e.m.
T2 sequence (O46124 31-438 T245A): T1 sequence (O46124 31-438 S169A)
Excerpt: as §1

AVR-14B GluCl Y248F = target: T3, AVR-14B GluCl Y248F (Haemonchus contortus, UniProt O46124, Y248F); details: Y248F mutant, mean ± s.e.m.
T3 sequence (O46124 31-438 Y248F): T1 sequence (O46124 31-438 S169A)
Excerpt: as §1

AVR-14B GluCl Q141R = target: T4, AVR-14B GluCl Q141R (Haemonchus contortus, UniProt O46124, Q141R); details: Q141R mutant; mean ± s.e.m.
T4 sequence (O46124 31-438 Q141R): T1 sequence (O46124 31-438 S169A)
Excerpt: as §1

[2] = target: T5, AVR-14B GluCl R76N/Q141R/K219A (RN/QR/KA) (Haemonchus contortus, UniProt O46124, K219A/Q141R/R76N); details: R76N/Q141R/K219A triple-mutant; mean ± s.e.m.
T5 sequence (O46124 31-438 R76N/Q141R/K219A): T1 sequence (O46124 31-438 S169A)
Excerpt: as §1

AVR-14B GluCl K219A = target: T6, AVR-14B GluCl K219A (Haemonchus contortus, UniProt O46124, K219A); details: K219A mutant, mean ± s.e.m.
T6 sequence (O46124 31-438 K219A): T1 sequence (O46124 31-438 S169A)
Excerpt: as §1

Ivermectin was tested, and the “Ivermectin Imax” value ([1]; 1 μM ivermectin) was 2.4 ± 0.4 μA, the “Ivermectin Imax” value (AVR-14B GluCl R76N; 1 μM ivermectin, mean ± s.e.m.) was 3.6 ± 1.0 μA and the “Ivermectin Imax” value (AVR-14B GluCl R95A) was 4.8 ± 1.9 μA. For the same molecule, the “Ivermectin Imax” value (AVR-14B GluCl A197E; 1 μM ivermectin, A197E mutant, mean ± s.e.m.) was 2.4 ± 0.7 μA and the “Ivermectin Imax” value (AVR-14B GluCl Y199F) was 0.7 ± 0.2 μA.

In the case of `N[C@@H](CCC(=O)O)C(=O)O` [Glutamate], the “Glutamate nH” value ([1]; Hill coefficient) is reported as 1.7 ± 0.2, the “Glutamate Imax” value ([1]; maximum glutamate-gated current) is reported as 3.1 ± 0.3 μA and the Gating by glutamate (AVR-14B GluCl R76N; glutamate up to 100 mM) is reported as “not substantially gated”. The “Glutamate nH” value (AVR-14B GluCl S169A; Hill coefficient) was 1.8 ± 0.2, the “Glutamate Imax” value (AVR-14B GluCl S169A) was 4.3 ± 1.1 μA and the “Glutamate nH” value (AVR-14B GluCl T245A; Hill coefficient) was 2.0 ± 0.1. The “Glutamate Imax” value (AVR-14B GluCl T245A) was 5.5 ± 0.8 μA, the “Glutamate nH” value (AVR-14B GluCl Y248F; Hill coefficient) was 1.9 ± 0.2 and the “Glutamate Imax” value (AVR-14B GluCl Y248F) was 4.3 ± 0.8 μA. The “Glutamate Imax” value (AVR-14B GluCl Q141R) was 1.1 ± 0.4 μA, the “Glutamate Imax” value [2] was 2.3 ± 0.3 μA and the “Glutamate nH” value (AVR-14B GluCl K219A; Hill coefficient) was 2.1 ± 0.4. The “Glutamate Imax” value (AVR-14B GluCl K219A) was 3.3 ± 0.5 μA and the Glutamate-gated currents (AVR-14B GluCl A197E; effect of the A197E substitution) was “abolished”.
